Patent US4954637A, “Certain maleimide-N-alkylenecarboxylate-ortho-nitrobenzenesulfonic acid esters and derivatives useful for coupling biological materials” (Cetus Corporation, priority 1987, dated 1990)
Where two headings read alike, the source gives them in different places.

Tests used:
polylysine = conditions: over a 5 minute period; pH 7.4, room temperature
Method: A total of 25 mg (0.34 μmoles) of polylysine obtained from Sigma Chemical Co. (Sigma) was succinylated to approximately 20 amines remaining unsuccinylated per polylysine molecule, and redissolved in 0.5 ml of 0.1M phosphate buffer at pH 7.4 to yield an amine concentration of 1.0×10^-2 M. Five mg (1.0×10^-5 moles) of the biotin HNSA ester was dissolved in 0.5 ml of the polylysine solution. The mixture was stirred at room temperature to initiate reaction. Ten μl aliquots were removed from the incubating solution at timed intervals and were each diluted into 1.0 ml of 0.01M phosphate buffer at pH 7.0. The spectrum of each diluted aliquot was measured and the absorbance at 406 nm recorded.

cells = conditions: vs biotin-p-nitrophenyl ester; fluoresceinated avidin; cited from earlier work
bovine serum albumin = conditions: pH 8.5; vs same ester of N-hydroxysuccinimide; cited from earlier work
[1] = tested on: sheep red blood cells (SRBC); experiment: Labelling of sheep red blood cells, Coulter EPICS V Cytofluorometer; assay type: cell-based; conditions: excitation at 360 nm
Method: Dansyl-sac-HNSA ester was prepared as described in Example 1A using molar equivalents of HNSA, dicyclohexylcarbodiimide and dansyl-ε-aminocaproic acid (from Sigma Chemicals). For use in coupling to sheep red blood cells (SRBC) the dansyl-sac-HNSA ester (50 mg) was prepared in 7 ml of 0.28M cacodylate buffer, pH 6.9.
Sheep red blood cells were washed 4 times (400×g. 8 minutes) in G-PBS buffer (5% α-D-glucose w/v in PBSCa-Mg). To 1 ml of packed red blood cells was added the 7 ml of dansyl-sac-HNSA ester dropwise with gentle mixing for 10 minutes at room temperature. The reaction was done in foil-wrapped glassware to protect against photodecomposition. Following the reaction the cells were washed in cold G-PBS buffer containing 1% heat inactivated (56° C., 30 minutes) FCS (fetal calf serum) until the supernatants were colorless (a minimum of 4 washes).
The dansyl-sac-HNSA labelled SRBC were monitored using a Coulter EPICS V Cytofluorometer immediately after labeling and at 24 hours. […] This translates to an increase in intensity 720 times over unlabeled cells.

[2] = tested on: Horseradish peroxidase (HRP); conditions: over a 30 minute period; pH 7.0, room temperature
[3] = assay type: physicochemical; conditions: 50 μl of 4.8N NaOH added to aliquot in 1 ml pH 7.0 buffer
Method: About 0.5 mg of the purified mal-sac HNSA ester from Example IA was dissolved in 1 ml of distilled water.
The difference between the post-base and initial free HNSA concentration represents the concentration of ester. From the actual concentration of ester the amount of ester to be added to the protein solution to achieve the desired degree of substitution can be calculated.

Solubility in water = assay type: physicochemical
biotinylated polylysine = experiment: Coupling of mal-sac-HNSA to biotinylated polylysine, then to HRP-SH; conditions: over a 30 minute period; pH 7.4, room temperature
Method: Biotinylated Polylysine (0.6 ml; 73,000 D average mol. wt.) was adjusted to pH 7.4 with 0.015 ml of 2.5N NaOH. Approximately 5 mg of mal-sac-HNSA was added to the biotinylated polylysine and stirred at room temperature. Ten μl aliquots were removed from the mixture at timed intervals and diluted into 1.0 ml of 0.01M phosphate buffer at pH 7.0. The spectrum of each diluted aliquot was measured and the absorbance at 406 nm recorded. A total of 50 μl of 4.8N NaOH solution was then added to each aliquot, mixed, and the spectrum retaken.
After 30 minutes of incubation time, the reaction was stopped using a Sephadex G-25 column, and the high molecular weight (biotin)4-polylysine-(sac-mal)18 was well separated from excess HNSA and unreacted mal-sac-HNSA.

[4] = tested on: bovine serum albumin (BSA); conditions: for Concentration of Ester: diluted aliquot
Method: A total of 22 mg ([…]) of BSA (of molecular weight 66,296) was dissolved in 2.0 ml of 0.01M phoshate buffer at pH 7.5 to yield a total amino concentration of 1.0×10^-2 moles per liter (assuming 59 lysines/BSA molecule). A calculated amount mg. […] The reaction was carried out at room temperature. […]
It was found at 15 minutes of reaction time that 2.6×10^-3 moles/1 of the ester had reacted and thus 25.9% of the 59 ε-amino groups of BSA were presumably substituted. Thus, the product contained 16 mal-sac groups per molecule.

streptavidin = tested on: streptavidin; design: species or system Streptomyces avidinii; conditions: over the period measured; pH 7.4, room temperature
Method: A total of 0.26 mg (4.3×10^-3 μmoles) of streptavidin purified from Streptomyces avidinii by the method of Hoffman et al., PNAS. 77, 4666-4668 (1980) was dissolved in 1.0 ml of phosphate buffered saline at pH 7.4 to yield a total amine concentration of 6.93×10^-5 M (16NH2 /streptavidin). […] Good separation was achieved between the protein and the excess HNSA and unreacted HNSA ester. […] In this case 79% of the amino groups on streptavidin (12.9 out of 16.0) reacted.

[5] = Stability in water and on storage; assay type: physicochemical; conditions: no nucleophiles added

O=C1N[C@H]2[C@H](CS[C@H]2CCCCC(=O)Oc2ccc(S(=O)(=O)O)cc2[N+](=O)[O-])N1 [Biotin-HNSA Ester]
reaction rate (polylysine): essentially linear | increase in fluorescence (cells): much larger increase in fluorescence

O=C(CCCCCNc1ccc([N+](=O)[O-])cc1[N+](=O)[O-])Oc1ccc(S(=O)(=O)O)cc1[N+](=O)[O-] [N-2,4-dinitrophenyl-6-aminocaproic acid ester of HNSA]
conjugation efficiency (bovine serum albumin): more efficient than the same ester of N-hydroxysuccinimide

CN(C)c1cccc2c(S(=O)(=O)NCCCCCC(=O)Oc3ccc(S(=O)(=O)O)cc3[N+](=O)[O-])cccc12 [dansyl-sac-HNSA]
increase in fluorescence intensity over unlabeled cells [1]: 720 times

O=C(CCCCCN1C(=O)C=CC1=O)Oc1ccc(S(=O)(=O)O)cc1[N+](=O)[O-] [mal-sac-HNSA, N-maleimido-6-aminocaproylHNSA]
reaction rate [2]: essentially linear | hydrolysis by hydroxide [3]: rapidly hydrolyzed | solubility in water (Solubility in water): dissolve fully in water | Percent Ester Remaining (avidin; 10 minutes, room temperature): 81% | reaction rate (avidin; 30 minutes, FIG. 3): linear | reaction rate (biotinylated polylysine): essentially linear | Concentration of Ester ([4]; 0 minutes): 1.56 × 10^-4 moles/1 | Concentration of Ester ([4]; 5 minutes): 1.16 × 10^-4 moles/1 | Concentration of Ester ([4]; 9 minutes): 1.03 × 10^-4 moles/1 | Concentration of Ester ([4]; 14 minutes): 1.11 × 10^-4 moles/1 | ester reacted ([4]; 15 minutes of reaction time): 2.6×10^-3 moles/1 | reaction rate (streptavidin): essentially linear | stability in water [5]: stable in water for several hours
